Where two headings read alike, the source gives them in different places.
Assay: log P by HPLC on reversed-phase columns (C 18), EEC directive 79/831 Annex V.A8
Assay type: physicochemical
Conditions: for chromatographic logP: reversed-phase C18 HPLC column; for logP[a]: method [a]; for logP[b]: method [b]
Description: The log P values were determined according to EEC directive 79/831 Annex V.A8 by HPLC (High Performance Liquid Chromatography) on reversed-phase columns (C 18), using the methods below:
[a] The LC-MS determination in the acidic range is carried out at pH 2.7 with 0.1% aqueous formic acid and acetonitrile (contains 0.1% formic acid) as mobile phases; linear gradient from 10% acetonitrile to 95% acetonitrile.
[b] The LC-MS determination in the neutral range is carried out at pH 7.8 using the mobile phases 0.001 molar aqueous ammonium bicarbonate solution and acetonitrile; linear gradient from 10% acetonitrile to 95% acetonitrile.

[1] = pH 2.7, acidic range, pH 2.7, 0.1% aqueous formic acid / acetonitrile, read-out: log P[a]
[2] = pH 7.8, neutral range, pH 7.8, 0.001 molar aqueous ammonium bicarbonate / acetonitrile, read-out: log P[b]
[3] = pH 2.7, method [a], read-out: logP[a]
[4] = pH 7.8, method [b], read-out: logP[b]

| SMILES | logP[a] | logP[b] | other results |
| --- | --- | --- | --- |
| Cc1ccc(Br)cc1SSc1cc(Br)ccc1C | – | – | chromatographic logP [1]: > 7.36; chromatographic logP [2]: > 7.36 |
| Cn1ncc2c(=O)n(-c3cc([S+]([O-])CC(F)(F)F)c(Cl)cc3Cl)cnc21 (racemic) [Compound 4] | 2.11 | 2.09 | – |
| Cc1cc(C)c([S+]([O-])CC(F)(F)F)cc1-n1cnc2c(cnn2C)c1=O (racemic) [Compound 9] | 1.74 | 1.74 | – |
| Cc1cc(C)c([S+]([O-])CC(F)(F)F)cc1-n1c(C)nc2c(cnn2C)c1=O (racemic) [Compound 10] | 1.86 | 1.84 | – |
| Cc1cc(F)c(-n2c(C)nc3c(cnn3CC(F)(F)F)c2=O)cc1[S+]([O-])CC(F)(F)F (racemic) [Compound 22] | 2.52 | – | – |
| Cn1ncc2c(=O)n(-c3ccc(Cl)c([S+]([O-])CC(F)(F)F)c3)cnc21 (racemic) [Compound 28] | 1.80 | 1.80 | – |
| Cn1ncc2c(=O)n(-c3ccc(C(F)(F)F)c([S+]([O-])CC(F)(F)F)c3)cnc21 (racemic) [Compound 29] | 2.16 | 2.11 | – |
| Cc1cc(C)c([S+]([O-])CC(F)(F)F)cc1-n1cnc2c(ncn2C)c1=O (racemic) [Compound 58] | 1.43 | 1.40 | – |
| Cc1cc(C)c([S+]([O-])CC(F)(F)F)cc1-n1c(C)nc2c(ncn2C)c1=O (racemic) [Compound 59] | 1.52 | 1.50 | – |
| Cc1ccc(B2OC(C)(C)C(C)(C)O2)cc1SCC(F)(F)F [4,4,5,5-Tetramethyl-2-{4-methyl-3-[(2,2,2-trifluoroethyl)sulphanyl]phenyl}-1,3,2-dioxaborolane] | – | – | chromatographic logP [1]: 3.73; chromatographic logP [2]: 3.74 |
| Cc1cc(F)c(NC(=O)c2cnn(C)c2N)cc1SCC(F)(F)F [5-Amino-N-{2-fluoro-4-methyl-5-[(2,2,2-trifluoroethyl)sulphanyl]phenyl}-1-methyl-1H-pyrazole-4-carboxamide] | – | – | chromatographic logP [1]: 2.44; chromatographic logP [2]: 2.23 |
| Cc1ccc(Br)cc1S(=O)(=O)Cl [5-Bromo-2-methylbenzenesulphonyl chloride] | – | – | chromatographic logP [1]: 3.73; chromatographic logP [2]: 3.74 |
| Cn1ncc2c(=O)n(-c3cc(SCC(F)(F)F)c(Cl)cc3Cl)cnc21 [Compound 3] | 2.94 | 2.94 | – |
| Cc1nc2c(cnn2C)c(=O)n1-c1cc(SCC(F)(F)F)c(Cl)cc1Cl [Compound 5] | 3.18 | 3.11 | – |
| Cc1cc(C)c(-n2c(C)nc3c(cnn3C)c2=O)cc1SCC(F)(F)F [Compound 6] | 2.92 | 2.86 | – |
| Cc1cc(C)c(-n2cnc3c(cnn3C)c2=O)cc1SCC(F)(F)F [Compound 7] | 2.79 | 2.73 | – |
| Cc1ccc(-n2cnc3c(cnn3C)c2=O)cc1SCC(F)(F)F [Compound 8] | 2.56 | 2.54 | – |
| Cc1cc(C)c(-n2c(C(F)(F)F)nc3c(cnn3C)c2=O)cc1SCC(F)(F)F [Compound 11] | 3.83 | 3.77 | – |
| Cc1cc(F)c(-n2c(C(F)(F)F)nc3c(cnn3C)c2=O)cc1SCC(F)(F)F [Compound 13, 5-{2-Fluoro-4-methyl-5-[(2,2,2-trifluoroethyl)sulphanyl]phenyl}-1-methyl-6-(trifluoromethyl)-1,5-dihydro-4H-pyrazolo[3,4-d]pyrimidin-4-one] | – | – | chromatographic logP [1]: 3.75; chromatographic logP [3]: 3.75; chromatographic logP [4]: 3.94; chromatographic logP [2]: 3.94 |
| Cc1cc(F)c(-n2c(C)nc3c(cnn3C)c2=O)cc1SCC(F)(F)F [Compound 14, 5-{2-Fluoro-4-methyl-5-[(2,2,2-trifluoroethyl)sulphanyl]phenyl}-1,6-dimethyl-1,5-dihydro-4H-pyrazolo[3,4-d]pyrimidin-4-one] | – | – | chromatographic logP [1]: 2.84; chromatographic logP [3]: 2.84; chromatographic logP [4]: 2.79; chromatographic logP [2]: 2.79 |
| Cc1cc(F)c(-n2c(C(F)(F)F)nc3c(cnn3C)c2=O)cc1[S+]([O-])CC(F)(F)F (stereo not shown) [Compound 16, 5-{2-Fluoro-4-methyl-5-[(2,2,2-trifluoroethyl)sulphinyl]phenyl}-1-methyl-6-(trifluoromethyl)-1,5-dihydro-4H-pyrazolo[3,4-d]pyrimidin-4-one] | – | – | log P[a] (acidic range, pH 2.7, 0.1% aqueous formic acid / acetonitrile): 2.74; log P[b] (neutral range, pH 7.8, 0.001 molar aqueous ammonium bicarbonate / acetonitrile): 2.70; chromatographic logP [1]: 2.67; chromatographic logP [3]: 2.67; chromatographic logP [4]: 2.63; chromatographic logP [2]: 2.63 |
| Cc1cc(F)c(-n2cnc3c(cnn3CC(F)(F)F)c2=O)cc1SCC(F)(F)F [Compound 17] | 3.31 | 3.21 | – |

| SMILES | logP[a] | logP[b] | other results |
| --- | --- | --- | --- |
| Cn1ncc2c(=O)n(-c3ccc(Cl)c(SCC(F)(F)F)c3)cnc21 [Compound 23] | 2.58 | 2.53 | – |
| Cn1ncc2c(=O)n(-c3ccc(C#N)c(SCC(F)(F)F)c3)cnc21 [Compound 24] | 2.07 | 2.06 | – |
| Cn1ncc2c(=O)n(-c3ccc(C(F)(F)F)c(SCC(F)(F)F)c3)cnc21 [Compound 25] | 2.82 | 2.75 | – |
| Cc1ccc(-n2cnc3c(c(C)nn3C)c2=O)cc1SCC(F)(F)F [Compound 30] | 2.81 | 2.73 | – |
| Cc1nn(C)c2ncn(-c3ccc(C(F)(F)F)c(SCC(F)(F)F)c3)c(=O)c12 [Compound 31] | 3.06 | 2.99 | – |
| Cc1nn(C)c2ncn(-c3ccc(C#N)c([S+]([O-])CC(F)(F)F)c3)c(=O)c12 (stereo not shown) [Compound 35] | 1.74 | 1.70 | – |
| Cc1cc(F)c(-n2c(C(F)(F)F)nc3nn(C)cc3c2=O)cc1SCC(F)(F)F [Compound 42] | 3.27 | 3.19 | – |
| Cc1ccc(-n2cnc3nn(C)c(C)c3c2=O)cc1SCC(F)(F)F [Compound 44] | 2.38 | 2.33 | – |
| Cc1c2c(=O)n(-c3ccc(Cl)c(SCC(F)(F)F)c3)cnc2nn1C [Compound 48] | 2.45 | 2.36 | – |
| Cc1c2c(=O)n(-c3ccc(C#N)c(SCC(F)(F)F)c3)cnc2nn1C [Compound 50] | 1.99 | 1.92 | – |
| Cc1cc(C)c(-n2cnc3c(ncn3C)c2=O)cc1SCC(F)(F)F [Compound 55] | 2.28 | 2.23 | – |
| Cc1cc(C)c(-n2c(C)nc3c(ncn3C)c2=O)cc1SCC(F)(F)F [Compound 56] | 2.36 | 2.35 | – |
| Cn1cnc2c(=O)n(-c3cc(SCC(F)(F)F)c(Cl)cc3F)cnc21 [Compound 57] | 2.19 | 2.17 | – |
| Cc1cc(C)c(-n2cnc3scnc3c2=O)cc1SCC(F)(F)F [Compound 62] | 2.67 | 2.64 | – |
| Cc1cc(F)c(-n2c(C(F)(F)F)nc3scnc3c2=O)cc1SCC(F)(F)F [Compound 65] | 3.55 | 3.51 | – |
| O=c1c2ncsc2ncn1-c1cc([S+]([O-])CC(F)(F)F)c(Cl)cc1Cl (stereo not shown) [Compound 67] | 1.96 | 1.96 | – |
| Cc1nc2c(=O)n(-c3cc(SCC(F)(F)F)c(Cl)cc3Cl)cnc2s1 [Compound 71] | 3.09 | 3.02 | – |
| Cc1nc2c(=O)n(-c3cc([S+]([O-])CC(F)(F)F)c(Cl)cc3Cl)cnc2s1 (stereo not shown) [Compound 74] | 2.22 | 2.17 | – |
| O=c1c2scnc2ncn1-c1cc(SCC(F)(F)F)c(Cl)cc1Cl [Compound 77] | 2.79 | 2.76 | – |
| O=c1c2scnc2ncn1-c1cc([S+]([O-])CC(F)(F)F)c(Cl)cc1Cl (stereo not shown) [Compound 80] | 2.01 | 1.98 | – |
| Cc1cc(C)c([S+]([O-])CC(F)(F)F)cc1-n1cnc2ncsc2c1=O (stereo not shown) [Compound 81] | 1.65 | 1.62 | – |
| Cc1ccc(-n2cnc3sccc3c2=O)cc1SCC(F)(F)F [Compound 83, 3-{4-Methyl-3-[(2,2,2-trifluoroethyl)sulphanyl]phenyl}thieno[2,3-d]pyrimidin-4(3H)-one] | – | – | chromatographic logP [1]: 3.04; chromatographic logP [3]: 3.09; chromatographic logP [4]: 3.01; chromatographic logP [2]: 3.02 |

Source: patent US9512128B2 (BAYER CROPSCIENCE AG, priority 2012, dated 2016)
